Target: T1, Aurora kinase A (AURKA) (Homo sapiens, UniProt O14965)
T1 construct: endogenous in cells; host or cells: HeLa LgBit (AURKA-HiBit KI), CRISPR/Cas9 knock-in at the endogenous AURKA locus
T1 sequence (O14965 1-403): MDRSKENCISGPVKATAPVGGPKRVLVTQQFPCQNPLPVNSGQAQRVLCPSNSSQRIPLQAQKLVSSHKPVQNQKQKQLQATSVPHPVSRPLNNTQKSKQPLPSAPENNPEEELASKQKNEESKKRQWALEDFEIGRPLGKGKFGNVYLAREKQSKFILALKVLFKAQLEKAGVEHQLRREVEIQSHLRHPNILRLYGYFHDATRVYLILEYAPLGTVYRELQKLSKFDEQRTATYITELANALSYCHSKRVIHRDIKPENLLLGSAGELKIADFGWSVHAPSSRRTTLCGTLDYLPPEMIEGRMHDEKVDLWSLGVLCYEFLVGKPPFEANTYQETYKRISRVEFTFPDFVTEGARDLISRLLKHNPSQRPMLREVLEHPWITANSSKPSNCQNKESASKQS
Test: Luciferase assay for AURKA in HeLa LgBit (AURKA-HiBit KI) cell line
Format: cell-based
Settings: HeLa LgBit (AURKA-HiBit KI) cells, measured after 12 hours
Text: HeLa cell lines that stably express LgBit were constructed via LgBit vector transfection. Then, donor DNA and guide RNA for insertion of HiBit amino acid sequence at C-terminus of inherent Aurora kinase A (AURKA) genes were designed and constructed. Thereafter, they were transfected into the cell lines with CRISPR/Cas9 expression vector system. HiBit gene knock-in single cells were selected, passaged and used for the experiments.
For cell culture, DMEM (Gibco, Cat. No. 11995-065; Lot. No. 2562497), FBS (Gibco, Cat. No. 16000-044; Lot. No. 2511328P), Penicillin/Streptomycin (PS) (Gibco, Cat. No. 15140-122; Lot. No. 2585636), 90 mm^2 cell culture dish (SPL, Cat. No. 20100), 96-well white plate, PBS pH 7.4 (Gibco, […]), TrypLE™ Express (Gibco, Cat. No. 12605-010; Lot. No. 2522525), counting chamber (hematocytometer) (Hirschmann, Cat. No. 8100204; Lot. No. 8021087) and 0.4% Trypan Blue solution (DYNEBIO, Cat. No. CBT3710; Lot. No. 20231017) were used. Cells were cultured in DMEM supplemented with 10% FBS and 1% PS and incubated in CO2 incubator (Thermo, Cat. No. 4111) at 37° C., 5% CO2 condition.
HeLa LgBit (AURKA-HiBit KI) cell lines were cultured in 90 mm^2 cell culture dish, and 3×10^4 cells in […] of total medium volume were seeded and incubated for 18 hours in CO2 incubator. Then, Eudurazine (Promega, Cat. No. N247B; Lot. No. 495218) was added to each well to make up 1% of the total volume, followed by further incubation for 2 hours in CO2 incubator.
The present compounds were fully dissolved in DMSO (Sigma-Aldrich Cat. No. D2438, Lot. No. RNBL7287) and 10 nM or 100 nM of total concentration were used in the experiment. After adding the compounds in each well of 96-well white plate, the plate was placed in the plate reader (BMG Labtech, CLARIOstar Plus) for real-time analysis. The wavelength for analysis was set to […], and the luminescence value was measured after 12 hours. The luminescence value was analyzed through an Excel program.

luminescence value (Level) (10 nM compound)	luminescence value (Level) (100 nM compound)	Compound
B (B is 0.3 to 0.5)	A (A is <0.2)	O=C1CCC(Nc2ccc(N3CCC(CN4C[C@@H]5[C@H](C4)[C@H]5NC(=O)c4ccc(Nc5ncc(F)c(Nc6ccc(C(=O)Nc7ccccc7Cl)cc6)n5)cc4)CC3)cc2)C(=O)N1 (stereo partly drawn) [Compound 40, N-(2-chlorophenyl)-4-((2-((4-(((1R,5S,6s)-3-((1-(4-((2,6-dioxopiperidin-3-yl)amino)phenyl)piperidin-4-yl)methyl)-3-azabicyclo[3.1.0]hexan-6-yl)carbamoyl)phenyl)amino)-5-fluoropyrimidin-4-yl)amino)benzamide]
C (C is 0.5 to 0.7)	B (B is 0.2 to 0.4)	O=C1CCC(c2ccc(N3CCC(CCN4CCC(NC(=O)c5ccc(Nc6ncc(F)c(Nc7ccc(C(=O)Nc8ccccc8Cl)cc7)n6)cc5)CC4)CC3)cc2)C(=O)N1 (centres unmarked) [Compound 19, N-(2-chlorophenyl)-4-((2-((4-((1-(2-(1-(4-(2,6-dioxopiperidin-3-yl)phenyl)piperidin-4-yl)ethyl)piperidin-4-yl)carbamoyl)phenyl)amino)-5-fluoropyrimidin-4-yl)amino) benzamide]
B (B is 0.3 to 0.5)	B (B is 0.2 to 0.4)	O=C1CCC(Nc2ccc(N3CCC(CN4C[C@H]5C[C@H](NC(=O)c6ccc(Nc7ncc(F)c(Nc8ccc(C(=O)Nc9ccccc9Cl)cc8)n7)cc6)C[C@H]5C4)CC3)cc2)C(=O)N1 (stereo partly drawn) [Compound 41, N-(2-chlorophenyl)-4-((2-((4-(((3aR,5s,6aS)-2-((1-(4-((2,6-dioxopiperidin-3-yl)amino)phenyl)piperidin-4-yl)methyl)octahydrocyclopenta[c]pyrrol-5-yl)carbamoyl)phenyl)amino)-5-fluoropyrimidin-4-yl)amino)benzamide]
B (B is 0.3 to 0.5)	B (B is 0.2 to 0.4)	O=C1CC[C@H](NC(=O)c2ccc(N3CCN(CCC4CCN(NC(=O)c5ccc(Nc6ncc(F)c(Nc7ccc(C(=O)Nc8ccccc8Cl)cc7)n6)cc5)CC4)CC3)cn2)C(=O)N1 [Compound 87, (S)-5-(4-(2-(1-(4-((4-((4-((2-chlorophenyl)carbamoyl)phenyl)amino)-5-fluoropyrimidin-2-yl)amino)benzamido)piperidin-4-yl)ethyl)piperazin-1-yl)-N-(2,6-dioxopiperidin-3-yl)picolinamide]
B (B is 0.3 to 0.5)	A (A is <0.2)	O=C1CCC(c2ccc(N3CCN(CCN4CC[C@@H](NC(=O)c5ccc(Nc6ncc(F)c(Nc7ccc(C(=O)Nc8ccccc8Cl)cc7)n6)cc5)C4)CC3)cc2)C(=O)N1 (stereo partly drawn) [Compound 64, N-(2-chlorophenyl)-4-((2-((4-(((3R)-1-(2-(4-(4-(2,6-dioxopiperidin-3-yl)phenyl)piperazin-1-yl)ethyl)pyrrolidin-3-yl)carbamoyl)phenyl)amino)-5-fluoropyrimidin-4-yl)amino)benzamide]
C (C is 0.5 to 0.7)	B (B is 0.2 to 0.4)	O=C1CCC(Nc2cccc(N3CCC(CN4CCN(C(=O)Cc5ccc(Nc6ncc(F)c(Nc7ccc(C(=O)Nc8ccccc8Cl)cc7)n6)cc5)CC4)CC3)c2)C(=O)N1 (centres unmarked) [Compound 25, N-(2-chlorophenyl)-4-((2-((4-(2-(4-((1-(3-((2,6-dioxopiperidin-3-yl)amino)phenyl)piperidin-4-yl)methyl)piperazin-1-yl)-2-oxoethyl)phenyl)amino)-5-fluoropyrimidin-4-yl)amino)benzamide]
B (B is 0.3 to 0.5)	A (A is <0.2)	O=C1CCC(c2ccc(N3CCC(CN4CCC(CNC(=O)c5ccc(Nc6ncc(F)c(Nc7ccc(C(=O)Nc8ccccc8Cl)cc7)n6)cc5)CC4)CC3)cc2)C(=O)N1 (centres unmarked) [Compound 62, N-(2-chlorophenyl)-4-((2-((4-(((1-((1-(4-(2,6-dioxopiperidin-3-yl)phenyl)piperidin-4-yl)methyl)piperidin-4-yl)methyl)carbamoyl)phenyl)amino)-5-fluoropyrimidin-4-yl)amino)benzamide]
B (B is 0.3 to 0.5)	A (A is <0.2)	O=C1CCC(Nc2ccc(N3CC4(CN(CC5CCN(C(=O)c6ccc(Nc7ncc(F)c(Nc8ccc(C(=O)Nc9ccccc9Cl)cc8)n7)cc6)CC5)C4)C3)cc2)C(=O)N1 (centres unmarked) [Compound 42, N-(2-chlorophenyl)-4-((2-((4-(4-((6-(4-((2,6-dioxopiperidin-3-yl)amino)phenyl)-2,6-diazaspiro[3.3]heptan-2-yl)methyl)piperidine-1-carbonyl)phenyl)amino)-5-fluoropyrimidin-4-yl)amino)benzamide]

The next lines start with the molecule.

Compound	luminescence value (Level) (10 nM compound)	luminescence value (Level) (100 nM compound)
O=C1CCC(c2ccc(N3CCN(CCC4CCN(NC(=O)c5ccc(Nc6ncc(F)c(Nc7ccc(C(=O)NC8CCCCC8)cc7)n6)cc5)CC4)CC3)cc2)C(=O)N1 (centres unmarked) [Compound 92, N-cyclohexyl-4-((2-((4-((4-(2-(4-(4-(2,6-dioxopiperidin-3-yl)phenyl)piperazin-1-yl)ethyl)piperidin-1-yl)carbamoyl)phenyl)amino)-5-fluoropyrimidin-4-yl)amino)benzamide]	B (B is 0.3 to 0.5)	A (A is <0.2)
CN(C(=O)c1ccc(Nc2nc(Nc3ccc(C(=O)NN4CCC(CCN5CCN(c6ccc(C7CCC(=O)NC7=O)cc6)CC5)CC4)cc3)ncc2F)cc1)c1ccccc1Cl (centres unmarked) [Compound 102, 4-[[4-[4-[(2-chlorophenyl)-methyl-carbamoyl]anilino]-5-fluoro-pyrimidin-2-yl]amino]-N-[4-[2-[4-[4-(2,6-dioxo-3-piperidyl)phenyl]piperazin-1-yl]ethyl]-1-piperidyl]benzamide]	B (B is 0.3 to 0.5)	A (A is <0.2)
O=C1CC[C@H](NC(=O)c2ccc(N3CCN(CCC4CCN(NC(=O)c5ccc(Nc6ncc(F)c(Nc7ccc(C(=O)Nc8ccccc8Cl)cc7)n6)cc5)CC4)CC3)cc2F)C(=O)N1 [Compound 89, (S)-4-(4-(2-(1-(4-((4-((4-((2-chlorophenyl)carbamoyl)phenyl)amino)-5-fluoropyrimidin-2-yl)amino)benzamido)piperidin-4-yl)ethyl)piperazin-1-yl)-N-(2,6-dioxopiperidin-3-yl)-2-fluorobenzamide]	B (B is 0.3 to 0.5)	B (B is 0.2 to 0.4)
O=C1CCC(c2ccc(N3CCN(CCC4CCN(NC(=O)c5ccc(Nc6ncc(F)c(Nc7ccc(C(=O)Nc8ccccc8Cl)cc7)n6)nc5)CC4)CC3)cc2)C(=O)N1 (centres unmarked) [Compound 91, 6-[[4-[4-[(2-chlorophenyl)carbamoyl]anilino]-5-fluoro-pyrimidin-2-yl]amino]-N-[4-[2-[4-[4-(2,6-dioxo-3-piperidyl)phenyl]piperazin-1-yl]ethyl]-1-piperidyl]pyridine-3-carboxamide]	D (D is 0.7 to 0.8)	C (C is 0.4 to 0.6)
COc1cc(N2CCN(CCC3CCN(NC(=O)c4ccc(Nc5ncc(F)c(Nc6ccc(C(=O)Nc7ccccc7Cl)cc6)n5)cc4F)CC3)CC2)c(F)cc1C1CCC(=O)NC1=O (centres unmarked) [Compound 119, 4-((4-((4-((2-chlorophenyl)carbamoyl)phenyl)amino)-5-fluoropyrimidin-2-yl)amino)-N-(4-(2-(4-(4-(2,6-dioxopiperidin-3-yl)-2-fluoro-5-methoxyphenyl)piperazin-1-yl)ethyl)piperidin-1-yl)-2-fluorobenzamide]	C (C is 0.5 to 0.7)	B (B is 0.2 to 0.4)
